# Experimental data reported in US20260034112A1, “MULTI-CYCLIC IRAK1 AND IRAK4 INHIBITING COMPOUNDS AND USES THEREOF” (CHILDREN'S HOSPITAL MEDICAL CENTER, priority 2022, published 2026).
# System: THP1 cells
# Assay type: cell-based, human
# Conditions: CA-4948 vs DMSO in THP1 cells
structure (smiles),measurement,value
"Cc1cc(-c2nc(C(=O)Nc3cc4oc(N5CCOCC5)nc4nc3N3CC[C@@H](O)C3)co2)ccn1 [CA-4948, emavusertib]",Log(FC) of gene FAM57B,0.9462
same,Log(FC) of gene FAM229A,0.8452
same,Log(FC) of gene FBXO15,−0.5977
same,Log(FC) of gene FCRLB,1.162
same,Log(FC) of gene FFAR4,0.5911
same,Log(FC) of gene FLJ31945,−0.9544
same,Log(FC) of gene FLJ45513,1.668
same,Log(FC) of gene GALR2,0.6354
same,Log(FC) of gene GAS6-AS1,0.6025
same,Log(FC) of gene GDPD3,0.695
same,Log(FC) of gene GIPR,0.6177
same,Log(FC) of gene GJC2,0.7031
same,Log(FC) of gene GNMT,1.408
same,Log(FC) of gene GP9,0.8031
same,Log(FC) of gene GPR3,−0.5921
same,Log(FC) of gene GPR113,0.7578
same,Log(FC) of gene GPR135,0.8057
same,Log(FC) of gene GPR158,−0.6058
same,Log(FC) of gene GSDMB,0.7698
same,Log(FC) of gene GSTM2,0.7484
same,Log(FC) of gene GUCA1B,1.348
same,Log(FC) of gene HHLA3,0.7796
same,Log(FC) of gene HLA-F-AS1,0.5961
same,Log(FC) of gene HPD,0.6253
same,Log(FC) of gene HSPA7,0.9538
same,Log(FC) of gene ID3,0.6893
same,Log(FC) of gene IGFBP3,−0.9606
same,Log(FC) of gene IGFBP7-AS1,0.9516
same,Log(FC) of gene IL8,−0.7139
same,Log(FC) of gene IL9R,1.002
same,Log(FC) of gene IL10RB-AS1,0.6103
same,Log(FC) of gene IPO9-AS1,0.7271
same,Log(FC) of gene ITIH4,1.233
same,Log(FC) of gene KCND1,0.5935
same,Log(FC) of gene KCNIP3,−0.6151
same,Log(FC) of gene KIAA1324,0.7793
same,Log(FC) of gene KRBA2,−0.8123
same,Log(FC) of gene LAMC3,0.6855
same,Log(FC) of gene LDLRAD4,0.7569
same,Log(FC) of gene LHPP,1.078
same,Log(FC) of gene LINC00337,0.6329
same,Log(FC) of gene LINC00641,0.8241
same,Log(FC) of gene LINC00893,0.737
same,Log(FC) of gene LINC00959,0.7922
same,Log(FC) of gene LOC155060,0.6346
same,Log(FC) of gene LOC284889,0.8366
same,Log(FC) of gene LOC644961,0.6222
same,Log(FC) of gene LOC728715,0.6401
same,Log(FC) of gene LOC728752,0.7225
same,Log(FC) of gene LOC100128494,0.9913
same,Log(FC) of gene LOC100129924,1.019
same,Log(FC) of gene LOC100130698,−1.064
same,Log(FC) of gene LOC100130705,0.845
same,Log(FC) of gene LOC100133091,0.5851
same,Log(FC) of gene LOC100134868,0.8444
same,Log(FC) of gene LOC100288069,0.6928
same,Log(FC) of gene LOC100288102,−0.6006
same,Log(FC) of gene LOC100505771,0.7704
same,Log(FC) of gene LOC100506083,0.8144
same,Log(FC) of gene LOC100506100,0.8985
same,Log(FC) of gene LOC100506472,0.7649
same,Log(FC) of gene LOC100506518,0.7779
same,Log(FC) of gene LOC100506548,1.108
same,Log(FC) of gene LOC100507373,0.7784
same,Log(FC) of gene LOC100507424,1.26
same,Log(FC) of gene LOC100507462,0.6976
same,Log(FC) of gene LOC101927085,−0.6948
same,Log(FC) of gene LOC101927119,0.6408
same,Log(FC) of gene LOC101927895,0.6379
same,Log(FC) of gene LOC101927910,1.281
same,Log(FC) of gene LOC101927974,0.7679
same,Log(FC) of gene LOC101928038,0.8781
same,Log(FC) of gene LOC101928055,0.8595
same,Log(FC) of gene LOC101928710,0.5901
same,Log(FC) of gene LOC101928830,0.7631
same,Log(FC) of gene LOC101929046,0.6794
same,Log(FC) of gene LOC101929054,0.589
same,Log(FC) of gene LOC101929112,0.5992
